Experimental data: patent publication US10835624B2, “Compounds for imaging Tau protein aggregates” (AC IMMUNE S.A., priority 2016, dated 2020)
Where “and” joins values, the source holds several entries; their conditions need not be identical. Identical values can stand only once. Like-named read-outs stand apart in the source and are kept apart here.

What was measured:
[1] = target: T1, MAO B (Homo sapiens, UniProt P27338); assay: MAO B 18F-fluoro deprenyl competition assay in human HC brain homogenate; format: binding
T1 construct: 20 μg of human brain homogenate (without AD pathology); from tissue; host or cells: human brain homogenate without AD pathology (healthy control)
T1 sequence (P27338 1-520): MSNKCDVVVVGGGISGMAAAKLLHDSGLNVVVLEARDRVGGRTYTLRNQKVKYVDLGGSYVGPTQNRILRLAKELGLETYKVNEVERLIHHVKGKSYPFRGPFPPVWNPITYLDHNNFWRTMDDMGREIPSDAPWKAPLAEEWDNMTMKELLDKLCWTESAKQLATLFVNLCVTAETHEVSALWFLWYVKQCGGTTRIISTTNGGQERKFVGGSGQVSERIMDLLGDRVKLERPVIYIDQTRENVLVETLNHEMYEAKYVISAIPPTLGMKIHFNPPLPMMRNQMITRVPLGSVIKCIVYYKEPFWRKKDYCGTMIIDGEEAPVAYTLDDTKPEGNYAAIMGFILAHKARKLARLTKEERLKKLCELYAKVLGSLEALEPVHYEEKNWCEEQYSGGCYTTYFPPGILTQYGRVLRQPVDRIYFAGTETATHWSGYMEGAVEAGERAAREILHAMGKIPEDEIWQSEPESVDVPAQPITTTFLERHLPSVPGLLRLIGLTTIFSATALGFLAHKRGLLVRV
Method: The samples were shaken at 110 rpm for 45 min at 37° C. Samples were then filtered through GF/B 96 well filter plates and washed twice with 300 μL assay buffer (PBS containing 0.1% BSA and 2% DMSO). Thereafter, filter plates were sealed and a Fuji Film Imaging Plate (BAS-SR2025) was placed on top. The imaging plate was analyzed after overnight exposition using a Fuji Film BAS-5000. […] IC50 values were calculated by Prism V6 (GraphPad) setting total binding to 100%.

[2] = target: T2, MAO A (Homo sapiens, UniProt P21397); assay: MAO A FEH competition assay in human HC brain homogenate; format: binding; conditions: human healthy control brain homogenate; FEH competition
T2 construct: 20 μg of human brain homogenate (without AD pathology); from tissue; host or cells: human brain homogenate without AD pathology (healthy control)
T2 sequence (P21397 1-527): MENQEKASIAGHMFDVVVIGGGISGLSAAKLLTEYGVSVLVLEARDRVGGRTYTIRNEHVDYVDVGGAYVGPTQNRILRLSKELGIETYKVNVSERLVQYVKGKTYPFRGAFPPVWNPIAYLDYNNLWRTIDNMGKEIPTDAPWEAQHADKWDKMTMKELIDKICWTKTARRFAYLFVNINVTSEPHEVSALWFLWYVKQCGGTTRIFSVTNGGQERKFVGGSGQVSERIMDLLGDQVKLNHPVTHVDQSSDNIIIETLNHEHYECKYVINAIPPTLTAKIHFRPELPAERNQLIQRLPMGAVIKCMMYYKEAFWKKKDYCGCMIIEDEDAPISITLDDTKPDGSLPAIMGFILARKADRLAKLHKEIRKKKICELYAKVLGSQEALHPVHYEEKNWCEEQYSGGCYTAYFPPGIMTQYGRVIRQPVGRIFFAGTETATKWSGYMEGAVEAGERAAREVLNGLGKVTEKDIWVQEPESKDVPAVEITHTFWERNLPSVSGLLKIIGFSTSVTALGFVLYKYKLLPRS
Method: (§1) 20 μg of human brain homogenate (without AD pathology) was incubated with a dilution series of each test compound (1000 to 0.06 nM) in the presence of 800 Bq of ^18F-labeled MAO-A binder ([^18F]fluoroethyl harmine, FEH). The samples were shaken at 110 rpm for 45 min at 37° C. Samples were then filtered through GF/B 96 well filter plates and washed twice with 300 μL assay buffer (PBS containing 0.1% BSA and 2% DMSO). Thereafter, filter plates were sealed and a Fuji Film Imaging Plate (BAS-SR2025) was placed on top. The imaging plate was analyzed after overnight exposition using a Fuji Film BAS-5000. Non-specific signal was determined with samples containing ^18F-labeled FEH in the presence of assay buffer without brain substrate and competitor. […] The unblocked ^18F-labeled FEH signal was defined as total binding. IC50 values were calculated by Prism V6 (GraphPad) setting total binding to 100%.

[3] = target: amyloid-beta (Homo sapiens, UniProt P05067); assay: Binding affinity to amyloid-beta in AD brain homogenate; conditions: human AD brain homogenate; non-radioactive derivatives
amyloid-beta, sequence (P05067 672-711 limits assumed): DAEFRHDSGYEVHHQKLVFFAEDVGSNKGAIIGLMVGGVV
Method: as §1, with “human Alzheimer disease” for “human”, “homogenate” for “homogenate (without AD pathology)”, “beta-amyloid binder.” for “MAO-A binder ([^18F]fluoroethyl harmine, FEH).”, “beta-amyloid binder” for “FEH”

[4] = target: Tau (Homo sapiens, UniProt P10636); assay: Tau competition binding in human AD brain homogenate with 18F-labeled Tau binder; conditions: for Binding affinity for Tau (in words): IC50 determined in AD brain homogenate, compared with 3a
Tau, sequence (P10636 623-708 limits assumed): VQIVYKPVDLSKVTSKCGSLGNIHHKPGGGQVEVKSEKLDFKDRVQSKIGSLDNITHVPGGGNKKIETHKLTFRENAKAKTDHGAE
Method: 20 μg of human Alzheimer disease brain homogenate was incubated with a dilution series of each test compound (1000 to 0.06 nM) in the presence of 800 Bq of ^18F-labeled Tau binder. The samples were shaken at 110 rpm for 45 min at 37° C. Samples were then filtered through GF/B 96 well filter plates and washed twice with 300 μL assay buffer (PBS containing 0.1% BSA and 2% DMSO). Thereafter, filter plates were sealed and a Fuji Film Imaging Plate (BAS-SR2025) was placed on top. The imaging plate was analyzed after overnight exposition using a Fuji Film BAS-5000. Non-specific signal was determined with samples containing ^18F-labeled Tau-reference binder in the presence of assay buffer without brain substrate and competitor. […] The unblocked ^18F-labeled Tau-binder signal was defined as total binding. IC50 values were calculated by Prism V6 (GraphPad) setting total binding to 100%.

[5] = target: T3, MAO A (Mus musculus, UniProt Q64133); assay: MAO A 18F-FEH competition assay in mouse brain homogenate; format: binding; conditions: for Selectivity over MAO A (in words): compared with 3a
T3 construct: from tissue; host or cells: whole mouse brain homogenate
T3 sequence (Q64133 1-526): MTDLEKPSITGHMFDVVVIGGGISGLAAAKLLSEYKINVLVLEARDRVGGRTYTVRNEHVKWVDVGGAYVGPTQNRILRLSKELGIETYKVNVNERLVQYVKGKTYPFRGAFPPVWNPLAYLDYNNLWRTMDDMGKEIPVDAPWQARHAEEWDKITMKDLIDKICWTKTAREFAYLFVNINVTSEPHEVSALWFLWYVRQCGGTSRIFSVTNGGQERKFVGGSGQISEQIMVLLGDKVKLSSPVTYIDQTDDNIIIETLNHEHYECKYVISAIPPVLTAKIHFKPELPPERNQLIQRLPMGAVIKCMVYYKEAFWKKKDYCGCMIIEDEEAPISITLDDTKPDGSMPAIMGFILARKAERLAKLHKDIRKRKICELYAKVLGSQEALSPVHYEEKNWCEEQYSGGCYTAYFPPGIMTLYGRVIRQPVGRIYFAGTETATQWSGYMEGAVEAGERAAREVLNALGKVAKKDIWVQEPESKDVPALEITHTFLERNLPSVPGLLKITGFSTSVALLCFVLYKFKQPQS

[6] = PK studies in healthy mice (PET); format: in vivo, NMRI mice; conditions: 18F tracer; for Mouse PK De-fluorination: bone uptake, footnote f: no de-fluorination detected; for Mouse PK Uptake: brain; for Mouse PK Washout: ratio of uptake peak/30 min
Method: NMRI mice (weight range 25-35 g) were injected intravenously with the ^18F-labeled compounds. Up to 150 μL of 1×PBS solution with 10%-15% EtOH or dilution medium ([…]) containing the ^18F-labeled compound (2-10 MBq) were injected. Anesthesia with isoflurane was induced before injection of the tracer and maintained during the image acquisition period. PET scans were performed using a SIEMENS INVEON small animal PET/CT scanner (Siemens, Knoxville, Tenn.). PET acquisition was started immediately before the radioactive dose was injected into the animal through the tail vein. Images were generated as dynamic scans for 60 minutes.
The peak uptake in the brain was set to 100% and washout curves were generated to evaluate the clearance of the activity from the normal brain (FIG. 2).

[7] = human AD brain homogenate, determined with non-radioactive F-1, F-2, F-3a, read-out: IC50 for tau binding in AD brain homogenate
[8] = 18F-FEH competition, non-radioactive derivatives, read-out: IC50 MAO A in mouse brain homogenate
[9] = IC50 in AD brain homogenate, non-radioactive fluorine-19 derivatives, read-out: high Tau binding
[10] = grade, AD brain homogenate, non-radioactive fluorine-19 derivatives, read-out: high Tau binding
[11] = IC50 in mouse brain homogenate, fluorine-19 derivatives, read-out: low MAO A binding
[12] = grade, IC50 in mouse brain homogenate, fluorine-19 derivatives, read-out: low MAO A binding

IC50 [1] [nM] | IC50 [2] | IC50 [3] [nM] | IC50 [4, 7] [nM] | IC50 [5, 8] [nM] | IC50 [4, 9] [nM] | IC50 [4, 10] [nM] | Selectivity over MAO A (in words) [5] | Mouse PK De-fluorination [6] | Mouse PK Uptake [6] | Mouse PK Washout [6] | IC50 [5, 11] [nM] | IC50 [5, 12] [nM] | Binding affinity for Tau (in words) [4] | SMILES | IC50 ([5]; low MAO A binding [nM], IC50 in mouse brain homogenate, fluorine-19 derivatives) [nM] | IC50 ([5]; low MAO A binding, grade, IC50 in mouse brain homogenate, fluorine-19 derivatives) [nM]
– | – | – | – | – | 43 | – | – | (4.8% ID/g) | (8.2% ID/g) | (14.5) | > 1000 | > 1000 | poor | Fc1ccncc1-c1ccc2c(n1)[nH]c1ccncc12 [Example F-6] | – | –
– | – | – | – | – | 7.1 | – | Inferior | (11.1% ID/g) | (8.5% ID/g) | (7.0) | 268 | – | inferior | Fc1cccc(-c2ccc3c(n2)[nH]c2ccncc23)n1 [Example F-7] | – | –
– | – | – | – | – | 8.4 | – | – | – | – | – | > 1000 | > 1000 | inferior | Fc1ccnc(-c2ccc3c(n2)[nH]c2ccncc23)c1 [Example F-9] | – | –

The next lines start with the compound.

SMILES | IC50 [1] [nM] | IC50 [2] | IC50 [3] [nM] | IC50 [4, 7] [nM] | IC50 [5, 8] [nM] | IC50 [4, 9] [nM] | IC50 [4, 10] [nM] | Selectivity over MAO A (in words) [5] | Mouse PK De-fluorination [6] | Mouse PK Uptake [6] | Mouse PK Washout [6] | IC50 [5, 11] [nM] | IC50 [5, 12] [nM] | Binding affinity for Tau (in words) [4] | IC50 ([5]; low MAO A binding [nM], IC50 in mouse brain homogenate, fluorine-19 derivatives) [nM] | IC50 ([5]; low MAO A binding, grade, IC50 in mouse brain homogenate, fluorine-19 derivatives) [nM]
Fc1ccc(-c2ccc3c(c2)[nH]c2ccncc23)cn1 [Example F-1] | 170 | 5 nM | > 1000 | < 2 | 22 | – | – | – | – | – | – | – | – | – | – | –
Fc1ccc(-c2ccc3c(n2)[nH]c2ccncc23)cn1 [Example F-2] | – | 100 nM | > 1000 | < 2 | 475 | < 5 | < 5 | Inferior | (6.2% ID/g) | (5.7% ID/g) | (10.9) | – | – | – | – | –
Fc1cc(-c2ccc3c(n2)[nH]c2ccncc23)ccn1 [Example F-3a] | – | 1100 nM and 530 nM | > 1000 | < 2 | 1400 | < 5 | < 5 | – | (<0.5% ID/g)^f | (4.4-5.9% ID/g) ^ | (11.2-16.6) | > 1000 | > 1000 | – | – | –
Fc1cnccc1-c1ccc2c(n1)[nH]c1ccncc12 [Example F-3b] | – | – | – | – | – | < 5 | < 5 | – | – | (4.0% ID/g) | (19.4) | 765 | – | – | – | –
Fc1cncc(-c2ccc3c(n2)[nH]c2ccncc23)c1 [Example F-5] | – | – | – | – | – | 6.3 | – | – | (2.9% ID/g) | (5.3% ID/g) | (9.6) | > 1000 | > 1000 | inferior | – | –
Fc1ccc(-c2ccc3c(n2)[nH]c2ccncc23)nc1 [Example F-8] | – | – | – | – | – | < 5 | < 5 | Inferior | – | – | – | 75 | – | – | – | –
Fc1cccnc1-c1ccc2c(n1)[nH]c1ccncc12 [Example F-10] | – | – | – | – | – | 103 | – | – | (6.2% ID/g) | (2.1% ID/g) | (3.6) | – | – | poor | > 1000 | > 1000
